pKi: −log10 of the molar value.
These compounds were tested against T1, Adenosine receptor A3 (Rattus norvegicus, UniProt P28647) (assay: Displacement of [125I]AB-MECA from rat adenosine A3 receptor expressed in CHO cells).
T1 sequence (P28647 whole entry): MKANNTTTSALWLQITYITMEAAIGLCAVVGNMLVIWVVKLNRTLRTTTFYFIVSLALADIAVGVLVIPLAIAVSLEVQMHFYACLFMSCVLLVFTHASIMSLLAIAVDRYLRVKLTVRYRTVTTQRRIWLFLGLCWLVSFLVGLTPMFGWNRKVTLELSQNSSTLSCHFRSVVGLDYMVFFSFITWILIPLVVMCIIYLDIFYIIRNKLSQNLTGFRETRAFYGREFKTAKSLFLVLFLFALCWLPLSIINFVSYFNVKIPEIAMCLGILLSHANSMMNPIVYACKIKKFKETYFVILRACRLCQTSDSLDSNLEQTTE
Format: cell-based

Row | pKi | SMILES
1 | 6.81 | CCNC(=O)[C@H]1O[C@@H](n2cnc3c(NC(=O)Nc4ccc(S(=O)(=O)Nc5cc(C)on5)cc4)ncnc32)[C@H](O)[C@@H]1O
2 | 7.27 | CCNC(=O)[C@H]1O[C@@H](n2cnc3c(NC(=O)Nc4ccc(S(=O)(=O)Nc5ccccn5)cc4)ncnc32)[C@H](O)[C@@H]1O
3 | 6.39 | CCNC(=O)[C@H]1O[C@@H](n2cnc3c(NC(=O)Nc4ccc(S(=O)(=O)Nc5ncccn5)cc4)ncnc32)[C@H](O)[C@@H]1O

Source: ChEMBL document CHEMBL1138998, “A topological function based on spectral moments for predicting affinity toward A3 adenosine receptors” (Bioorg Med Chem Lett, 2006)
